Experimental data taken from ChEMBL document CHEMBL5335856, “Structurally Diverse Alkaloids with Anti-Renal-Fibrosis Activity from the Centipede Scolopendra subspinipes mutilans” (J Nat Prod, 2024).
Activity calls are given as the source filed them. No cut-off for these calls is given here.

Legend:
[1] = target: Protein YIF1B (Homo sapiens) (UniProt Q5BJH7); experiment: Binding affinity to Yif1b (unknown origin) assessed as fold change in protein upregulation at 200 uM preincubated for 2 hrs followed by pronase addition and measured after 30 mins by coomassie blue staining based SDS-PAGE gel analysis
NRK-52E [2] = experiment: Anti-renal-fibrosis activity in TGF-beta1 induced Lamp2 knocked down rat NRK-52E cells assessed as downregulation of alpha-SMA expression at 40 uM; type: functional, cell-based
NRK-52E [3] = experiment: Anti-renal-fibrosis activity in TGF-beta1 induced Lamp2 knocked down rat NRK-52E cells assessed as downregulation of fibronectin expression at 40 uM; type: functional, cell-based
NRK-52E [4] = experiment: Anti-renal-fibrosis activity in TGF-beta1 induced Lamp2 knocked down rat NRK-52E cells assessed as downregulation of collagen I expression at 40 uM; type: functional, cell-based
[5] = target: Serine/threonine-protein kinase TAO3 (Homo sapiens) (UniProt Q9H2K8); experiment: Binding affinity to Taok3 (unknown origin) at 200 uM preincubated for 2 hrs followed by pronase addition and measured after 30 mins by coomassie blue staining based SDS-PAGE gel analysis
Chain of Serine/threonine-protein kinase TAO3 (Homo sapiens) (Q9H2K8 whole entry): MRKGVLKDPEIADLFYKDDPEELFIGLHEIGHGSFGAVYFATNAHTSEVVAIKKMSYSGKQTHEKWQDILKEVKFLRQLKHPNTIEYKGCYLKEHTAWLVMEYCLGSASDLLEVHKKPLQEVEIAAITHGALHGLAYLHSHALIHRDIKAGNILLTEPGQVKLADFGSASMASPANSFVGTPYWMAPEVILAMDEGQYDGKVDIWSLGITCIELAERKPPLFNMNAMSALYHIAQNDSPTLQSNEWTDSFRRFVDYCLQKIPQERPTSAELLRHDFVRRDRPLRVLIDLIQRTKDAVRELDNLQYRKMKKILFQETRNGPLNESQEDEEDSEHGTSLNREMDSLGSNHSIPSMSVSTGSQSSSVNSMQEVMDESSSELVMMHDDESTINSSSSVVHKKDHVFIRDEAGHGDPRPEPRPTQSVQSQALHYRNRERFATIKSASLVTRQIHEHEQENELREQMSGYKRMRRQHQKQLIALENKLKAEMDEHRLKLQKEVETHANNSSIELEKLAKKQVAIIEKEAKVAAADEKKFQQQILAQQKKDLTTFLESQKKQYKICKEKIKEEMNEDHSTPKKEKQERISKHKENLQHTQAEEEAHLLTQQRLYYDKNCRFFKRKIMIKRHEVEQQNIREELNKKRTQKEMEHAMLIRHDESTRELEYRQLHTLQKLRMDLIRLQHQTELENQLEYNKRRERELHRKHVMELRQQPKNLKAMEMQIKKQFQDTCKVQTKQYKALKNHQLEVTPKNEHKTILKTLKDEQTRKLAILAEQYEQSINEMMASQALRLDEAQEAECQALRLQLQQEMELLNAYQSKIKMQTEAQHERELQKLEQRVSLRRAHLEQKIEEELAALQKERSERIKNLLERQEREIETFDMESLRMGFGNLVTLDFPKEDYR

[6] = target: 2-oxoisovalerate dehydrogenase subunit beta, mitochondrial (Homo sapiens) (UniProt P21953); experiment: Binding affinity to BCKDHB (unknown origin) at 200 uM preincubated for 2 hrs followed by pronase addition and measured after 30 mins by coomassie blue staining based SDS-PAGE gel analysis
Chain of 2-oxoisovalerate dehydrogenase subunit beta, mitochondrial (Homo sapiens) (P21953 whole entry): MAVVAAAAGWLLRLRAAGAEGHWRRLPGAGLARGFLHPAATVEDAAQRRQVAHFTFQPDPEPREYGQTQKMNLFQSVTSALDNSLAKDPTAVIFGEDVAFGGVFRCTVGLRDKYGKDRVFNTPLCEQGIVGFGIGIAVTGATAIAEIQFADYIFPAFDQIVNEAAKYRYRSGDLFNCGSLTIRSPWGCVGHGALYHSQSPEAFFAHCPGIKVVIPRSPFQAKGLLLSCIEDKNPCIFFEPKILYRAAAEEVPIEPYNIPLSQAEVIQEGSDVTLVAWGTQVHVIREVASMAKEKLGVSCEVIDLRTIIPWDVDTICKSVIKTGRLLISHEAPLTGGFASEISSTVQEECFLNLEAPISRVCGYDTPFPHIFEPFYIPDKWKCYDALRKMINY

[7] = target: Ubiquitin-like modifier-activating enzyme 5 (Homo sapiens) (UniProt Q9GZZ9); experiment: Binding affinity to Uba5 (unknown origin) at 200 uM preincubated for 2 hrs followed by pronase addition and measured after 30 mins by coomassie blue staining based SDS-PAGE gel analysis
[8] = target: Protein farnesyltransferase/geranylgeranyltransferase type-1 subunit alpha (Homo sapiens) (UniProt P49354); experiment: Binding affinity to FNTA (unknown origin) assessed as fold change in protein upregulation at 200 uM preincubated for 2 hrs followed by pronase addition and measured after 30 mins by coomassie blue staining based SDS-PAGE gel analysis
[9] = target: Nonsense-mediated mRNA decay factor SMG7 (Homo sapiens) (UniProt Q92540); experiment: Binding affinity to Smg7 (unknown origin) at 200 uM preincubated for 2 hrs followed by pronase addition and measured after 30 mins by coomassie blue staining based SDS-PAGE gel analysis
Chain of Nonsense-mediated mRNA decay factor SMG7 (Homo sapiens) (Q92540 whole entry): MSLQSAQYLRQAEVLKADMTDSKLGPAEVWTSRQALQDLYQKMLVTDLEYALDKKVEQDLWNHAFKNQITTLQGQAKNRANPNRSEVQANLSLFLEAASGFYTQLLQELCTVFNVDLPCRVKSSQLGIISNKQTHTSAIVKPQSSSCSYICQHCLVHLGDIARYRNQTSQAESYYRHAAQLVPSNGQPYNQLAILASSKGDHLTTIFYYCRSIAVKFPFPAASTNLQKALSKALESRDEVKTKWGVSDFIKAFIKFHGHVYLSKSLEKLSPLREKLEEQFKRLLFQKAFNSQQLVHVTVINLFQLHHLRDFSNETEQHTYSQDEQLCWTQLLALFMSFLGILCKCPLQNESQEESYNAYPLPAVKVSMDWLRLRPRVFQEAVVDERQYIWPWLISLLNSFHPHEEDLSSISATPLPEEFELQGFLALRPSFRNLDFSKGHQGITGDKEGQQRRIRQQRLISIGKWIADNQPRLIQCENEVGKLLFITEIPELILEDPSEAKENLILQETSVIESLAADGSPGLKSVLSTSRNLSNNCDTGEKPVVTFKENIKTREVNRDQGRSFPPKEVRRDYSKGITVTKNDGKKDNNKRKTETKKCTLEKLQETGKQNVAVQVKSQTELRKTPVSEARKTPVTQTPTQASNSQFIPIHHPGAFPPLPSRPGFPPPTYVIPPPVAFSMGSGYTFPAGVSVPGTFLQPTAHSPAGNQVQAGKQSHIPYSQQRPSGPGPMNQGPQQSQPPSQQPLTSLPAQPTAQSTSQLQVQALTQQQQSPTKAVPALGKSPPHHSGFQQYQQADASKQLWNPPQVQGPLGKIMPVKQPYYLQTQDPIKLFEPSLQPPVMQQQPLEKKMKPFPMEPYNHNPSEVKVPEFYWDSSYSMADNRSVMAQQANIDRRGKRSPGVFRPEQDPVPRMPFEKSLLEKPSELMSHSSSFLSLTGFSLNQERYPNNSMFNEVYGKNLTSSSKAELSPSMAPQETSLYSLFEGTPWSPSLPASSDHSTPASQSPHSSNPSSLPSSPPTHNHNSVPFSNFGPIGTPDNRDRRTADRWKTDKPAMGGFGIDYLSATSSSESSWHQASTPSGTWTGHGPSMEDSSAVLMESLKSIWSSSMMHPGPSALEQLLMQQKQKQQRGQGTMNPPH

RAW264.7 [10] = experiment: Antiinflammatory activity against LPS-induced mouse RAW264.7 cells assessed as reduction in iNOS protein level at 20 uM; type: functional, cell-based
NRK-52E [11] = experiment: Anti-renal-fibrosis activity in TGF-beta1 induced rat NRK-52E cells assessed as downregulation of alpha-SMA protein level by Western blot analysis; type: functional, cell-based; conditions: dose 5-40 µM
RAW264.7 [12] = experiment: Antiinflammatory activity against LPS-induced mouse RAW264.7 cells assessed as reduction in COX-2 protein level at 20 uM; type: functional, cell-based
[13] = target: Na(+)/H(+) exchange regulatory cofactor NHE-RF1 (Homo sapiens) (UniProt O14745); experiment: Binding affinity to Slc9a3r1 (unknown origin) assessed as fold change in protein upregulation at 200 uM preincubated for 2 hrs followed by pronase addition and measured after 30 mins by coomassie blue staining based SDS-PAGE gel analysis
Chain of Na(+)/H(+) exchange regulatory cofactor NHE-RF1 (Homo sapiens) (O14745 whole entry): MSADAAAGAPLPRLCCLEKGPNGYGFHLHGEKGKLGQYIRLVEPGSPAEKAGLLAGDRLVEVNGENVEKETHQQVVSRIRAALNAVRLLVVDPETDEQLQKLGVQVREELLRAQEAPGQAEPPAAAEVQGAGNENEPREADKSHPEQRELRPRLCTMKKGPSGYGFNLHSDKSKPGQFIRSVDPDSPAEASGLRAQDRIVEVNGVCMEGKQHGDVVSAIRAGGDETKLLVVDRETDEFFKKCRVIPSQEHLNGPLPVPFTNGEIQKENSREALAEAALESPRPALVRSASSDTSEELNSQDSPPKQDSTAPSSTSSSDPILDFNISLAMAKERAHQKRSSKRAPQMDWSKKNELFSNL

[14] = target: FACT complex subunit SPT16 (Homo sapiens) (UniProt Q9Y5B9); experiment: Binding affinity to Supt16h (unknown origin) assessed as fold change in protein upregulation at 200 uM preincubated for 2 hrs followed by pronase addition and measured after 30 mins by coomassie blue staining based SDS-PAGE gel analysis
NRK-52E [15] = experiment: Anti-renal-fibrosis activity in TGF-beta1 induced rat NRK-52E cells assessed as downregulation of fibronectin protein level at 20 uM by Western blot analysis; type: functional, cell-based
[16] = target: Far upstream element-binding protein 2 (Homo sapiens) (UniProt Q92945); experiment: Binding affinity to KHSRP (unknown origin) assessed as fold change in protein upregulation at 200 uM preincubated for 2 hrs followed by pronase addition and measured after 30 mins by coomassie blue staining based SDS-PAGE gel analysis
NRK-52E [17] = experiment: Anti-renal-fibrosis activity in TGF-beta1 induced rat NRK-52E cells assessed as downregulation of alpha-SMA expression at 40 uM; type: functional, cell-based
[18] = target: Sorting nexin-3 (Homo sapiens) (UniProt O60493); experiment: Binding affinity to Snx3 (unknown origin) assessed as fold change in protein upregulation at 200 uM preincubated for 2 hrs followed by pronase addition and measured after 30 mins by coomassie blue staining based SDS-PAGE gel analysis
Chain of Sorting nexin-3 (Homo sapiens) (O60493 whole entry): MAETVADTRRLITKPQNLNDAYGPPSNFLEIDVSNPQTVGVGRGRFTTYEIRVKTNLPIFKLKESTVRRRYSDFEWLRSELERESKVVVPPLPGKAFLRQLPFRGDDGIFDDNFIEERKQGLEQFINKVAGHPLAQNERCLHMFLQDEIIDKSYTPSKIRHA

[19] = target: Tyrosine-protein phosphatase non-receptor type 2 (Homo sapiens) (UniProt P17706); experiment: Binding affinity to Ptpn2 (unknown origin) assessed as fold change in protein upregulation at 200 uM preincubated for 2 hrs followed by pronase addition and measured after 30 mins by coomassie blue staining based SDS-PAGE gel analysis
Chain of Tyrosine-protein phosphatase non-receptor type 2 (Homo sapiens) (P17706 whole entry): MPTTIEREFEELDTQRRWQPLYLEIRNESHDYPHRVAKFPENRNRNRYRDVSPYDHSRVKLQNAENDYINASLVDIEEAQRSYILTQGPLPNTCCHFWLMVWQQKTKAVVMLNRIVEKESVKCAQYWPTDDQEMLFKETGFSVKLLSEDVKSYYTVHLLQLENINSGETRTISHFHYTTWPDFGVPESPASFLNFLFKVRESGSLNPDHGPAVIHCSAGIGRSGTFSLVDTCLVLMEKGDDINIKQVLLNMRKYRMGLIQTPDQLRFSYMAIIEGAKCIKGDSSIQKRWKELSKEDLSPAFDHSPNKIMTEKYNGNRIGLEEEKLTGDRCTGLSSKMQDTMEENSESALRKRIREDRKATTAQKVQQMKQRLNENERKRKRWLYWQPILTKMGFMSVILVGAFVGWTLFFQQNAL

NRK-52E [20] = experiment: Anti-renal-fibrosis activity in TGF-beta1 induced rat NRK-52E cells assessed as downregulation of fibronectin expression at 40 uM; type: functional, cell-based
[21] = target: Poly(rC)-binding protein 3 (Homo sapiens) (UniProt P57721); experiment: Binding affinity to Pcbp3 (unknown origin) at 200 uM preincubated for 2 hrs followed by pronase addition and measured after 30 mins by coomassie blue staining based SDS-PAGE gel analysis
NRK-52E [22] = experiment: Anti-renal-fibrosis activity in TGF-beta1 induced rat NRK-52E cells assessed as downregulation of collagen I protein level at 20 uM by Western blot analysis; type: functional, cell-based
[23] = target: Splicing factor 3A subunit 3 (Homo sapiens) (UniProt Q12874); experiment: Binding affinity to Sf3a3 (unknown origin) assessed as fold change in protein upregulation at 200 uM preincubated for 2 hrs followed by pronase addition and measured after 30 mins by coomassie blue staining based SDS-PAGE gel analysis
[24] = target: Cysteine and glycine-rich protein 2 (Homo sapiens) (UniProt Q16527); experiment: Binding affinity to Csrp2 (unknown origin) assessed as fold change in protein upregulation at 200 uM preincubated for 2 hrs followed by pronase addition and measured after 30 mins by coomassie blue staining based SDS-PAGE gel analysis
[25] = target: Prelamin-A/C (Homo sapiens) (UniProt P02545); experiment: Binding affinity to LMNA (unknown origin) assessed as fold change in protein upregulation at 200 uM preincubated for 2 hrs followed by pronase addition and measured after 30 mins by coomassie blue staining based SDS-PAGE gel analysis
Lamin-B2 (Homo sapiens) = Lamin-B2 (Homo sapiens) (UniProt Q03252); experiment: Binding affinity to Lmnb2 (unknown origin) assessed as fold change in protein upregulation at 200 uM preincubated for 2 hrs followed by pronase addition and measured after 30 mins by coomassie blue staining based SDS-PAGE gel analysis
Chain of Lamin-B2 (Homo sapiens) (Q03252 whole entry): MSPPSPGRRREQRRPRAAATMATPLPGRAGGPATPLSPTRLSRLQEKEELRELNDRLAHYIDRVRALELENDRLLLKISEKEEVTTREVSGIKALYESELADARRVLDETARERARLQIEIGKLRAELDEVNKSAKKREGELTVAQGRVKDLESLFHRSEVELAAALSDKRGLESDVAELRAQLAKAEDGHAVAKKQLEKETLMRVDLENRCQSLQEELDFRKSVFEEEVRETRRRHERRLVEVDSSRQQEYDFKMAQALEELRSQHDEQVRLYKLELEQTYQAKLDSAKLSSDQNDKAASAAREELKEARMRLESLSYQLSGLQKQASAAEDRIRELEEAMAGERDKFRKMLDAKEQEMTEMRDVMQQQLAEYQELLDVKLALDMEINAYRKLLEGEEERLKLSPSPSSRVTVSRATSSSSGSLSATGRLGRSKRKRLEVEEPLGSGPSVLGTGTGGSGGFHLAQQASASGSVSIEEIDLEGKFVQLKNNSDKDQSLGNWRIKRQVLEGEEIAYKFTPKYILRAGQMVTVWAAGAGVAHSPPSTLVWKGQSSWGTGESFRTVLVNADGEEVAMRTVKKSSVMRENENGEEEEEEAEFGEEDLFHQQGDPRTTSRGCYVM

NRK-52E [26] = experiment: Anti-renal-fibrosis activity in TGF-beta1 induced rat NRK-52E cells assessed as downregulation of collagen I protein level by Western blot analysis; type: functional, cell-based; conditions: dose 5-40 µM
[27] = target: Chromosome transmission fidelity protein 18 homolog (Homo sapiens) (UniProt Q8WVB6); experiment: Binding affinity to Chtf18 (unknown origin) assessed as fold change in protein upregulation at 200 uM preincubated for 2 hrs followed by pronase addition and measured after 30 mins by coomassie blue staining based SDS-PAGE gel analysis
Chain of Chromosome transmission fidelity protein 18 homolog (Homo sapiens) (Q8WVB6 whole entry): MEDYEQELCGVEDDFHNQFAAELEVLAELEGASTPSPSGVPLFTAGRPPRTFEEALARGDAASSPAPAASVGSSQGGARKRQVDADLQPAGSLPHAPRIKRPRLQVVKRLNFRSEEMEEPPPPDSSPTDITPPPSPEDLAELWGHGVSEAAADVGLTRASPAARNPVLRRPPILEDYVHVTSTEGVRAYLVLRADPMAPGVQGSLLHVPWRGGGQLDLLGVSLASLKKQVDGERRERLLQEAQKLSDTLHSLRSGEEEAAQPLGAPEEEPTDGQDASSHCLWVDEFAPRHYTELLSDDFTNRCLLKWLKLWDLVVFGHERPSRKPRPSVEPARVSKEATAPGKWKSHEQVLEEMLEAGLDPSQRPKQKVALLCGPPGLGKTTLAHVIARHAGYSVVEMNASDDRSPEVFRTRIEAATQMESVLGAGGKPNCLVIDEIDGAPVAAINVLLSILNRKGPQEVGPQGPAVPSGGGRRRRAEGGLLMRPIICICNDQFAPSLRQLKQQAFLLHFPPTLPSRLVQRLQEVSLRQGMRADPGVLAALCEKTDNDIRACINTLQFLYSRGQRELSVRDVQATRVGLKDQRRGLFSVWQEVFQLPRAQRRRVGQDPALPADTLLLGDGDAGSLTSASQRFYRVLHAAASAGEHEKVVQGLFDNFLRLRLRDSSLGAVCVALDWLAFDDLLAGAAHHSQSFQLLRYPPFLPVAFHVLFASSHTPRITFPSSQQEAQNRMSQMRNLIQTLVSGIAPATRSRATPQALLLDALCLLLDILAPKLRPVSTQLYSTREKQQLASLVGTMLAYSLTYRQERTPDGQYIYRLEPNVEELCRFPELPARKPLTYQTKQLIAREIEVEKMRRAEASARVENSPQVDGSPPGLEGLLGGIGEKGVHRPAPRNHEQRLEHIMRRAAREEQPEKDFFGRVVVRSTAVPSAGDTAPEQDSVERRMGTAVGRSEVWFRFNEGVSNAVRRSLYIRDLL

In the case of `COc1c(O)nc2c(O)cccc2c1OC`, the fold change (FC) [1] is reported as 1.76, the Activity (NRK-52E [2]) is reported as “inactive” and the Activity (NRK-52E [3]) is reported as “inactive”. For the same compound, the Activity (NRK-52E [4]) was “inactive”, the Activity [5] was “Active” and the Activity [6] was “Active”. For the same compound, the Activity [7] was “Active”, the fold change (FC) [8] was 1.26 and the Activity [9] was “Active”. The Activity (RAW264.7 [10]) was “Active”, the Activity (NRK-52E [11]) was “Dose-Dependent Effect” and the Activity (RAW264.7 [12]) was “Active”. For the same compound, the fold change (FC) [13] was 3.04, the fold change (FC) [14] was 1.23 and the Activity (NRK-52E [15]) was “Active”. For the same compound, the fold change (FC) [16] was 2.19, the Activity (NRK-52E [17]) was “Active” and the fold change (FC) [18] was 1.67. For the same compound, the fold change (FC) [19] was 1.57, the Activity (NRK-52E [20]) was “Active” and the Activity [21] was “Active”. The Activity (NRK-52E [22]) was “Active”, the fold change (FC) [23] was 1.8 and the fold change (FC) [24] was 1.29. The fold change (FC) [25] was 1.34, the fold change (FC) (Lamin-B2 (Homo sapiens)) was 1.24 and the Activity (NRK-52E [26]) was “Dose-Dependent Effect”. For the same compound, the fold change (FC) [27] was 2.05.
